18 compounds from PubChem BioAssay AID330 (DTP/NCI, 2004) can be followed below.

This experiment deals with P388 leukemia ip, CD2F1 mice, survival T/C. In words: NCI In Vivo Anticancer Drug Screen. Data for tumor model P388 Leukemia (intraperitoneal) in CD2F1 (CDF1) mice. The note with it: endpoint: median survival time, higher = longer survival. The gist of the method:
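Mice carrying the transplanted tumor received test compound or vehicle. Survival was recorded in each group, and the value is the treated-group measurement divided by that of the vehicle-treated control group.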

The mark [1] stands for this setting: dose: 25.0 mg/kg/injection, schedule: Q01DX009 (ip), vehicle: saline with Tween-80.
Where [2] appears, read: dose: 50.0 mg/kg/injection, schedule: Q01DX009 (ip), vehicle: saline with Tween-80.
Where [3] appears, read: dose: 100.0 mg/kg/injection, schedule: Q01DX009 (ip), vehicle: saline with Tween-80.
The mark [4] stands for this setting: dose: 50.0 mg/kg/injection, schedule: Q01DX009 (ip), vehicle: Klucel (hydroxypropylcellulose) (HPC).
Setting [5] is: dose: 100.0 mg/kg/injection, schedule: Q01DX009 (ip), vehicle: Klucel (hydroxypropylcellulose) (HPC).
Where [6] appears, read: dose: 200.0 mg/kg/injection, schedule: Q01DX009 (ip), vehicle: Klucel (hydroxypropylcellulose) (HPC).
Where [7] appears, read: dose: 50.0 mg/kg/injection, schedule: Q01DX009 (ip), vehicle: saline.
[8] abbreviates: dose: 100.0 mg/kg/injection, schedule: Q01DX009 (ip), vehicle: saline.
The mark [9] stands for this setting: dose: 200.0 mg/kg/injection, schedule: Q01DX009 (ip), vehicle: saline.

Several values for one entry are separate records, joined by “and”; a condition that tells them apart may be missing. Identical values can stand only once. Inconclusive results and toxic doses are left out.

Take `CC(=O)OCC1C(=O)OCC1C(=O)N1Cc2cc3ccccc3nc2C1` (configuration not stated): the T/C (dose: 6.25 mg/kg/injection, schedule: Q01DX009 (ip), vehicle: saline with Tween-80) is 100 % of control; the T/C (dose: 8.0 mg/kg/injection, schedule: Q01DX009 (ip), vehicle: saline with Tween-80) was 104 % of control and 93 % of control and 97 % of control; the T/C (dose: 12.5 mg/kg/injection, schedule: Q01DX009 (ip), vehicle: saline with Tween-80) was 113 % of control; the T/C (dose: 16.0 mg/kg/injection, schedule: Q01DX009 (ip), vehicle: saline with Tween-80) is 105 % of control and 116 % of control and 98 % of control; the T/C under setting [1] was 105 % of control; the T/C (dose: 32.0 mg/kg/injection, schedule: Q01DX009 (ip), vehicle: saline with Tween-80) was 113 % of control and 116 % of control and 97 % of control. In addition, the T/C is 105 % of control under setting [2]; 99 % of control and 105 % of control (dose: 64.0 mg/kg/injection, schedule: Q01DX009 (ip), vehicle: saline with Tween-80); 100 % of control and 106 % of control and 108 % of control (dose: 128.0 mg/kg/injection, schedule: Q01DX009 (ip), vehicle: saline with Tween-80).

On to `COC(=O)C1=C(C(=O)OC)C(C)(C)N=N1`, for which the T/C (dose: 5.3 mg/kg/injection, schedule: Q01DX009 (ip), vehicle: other) was 111 % of control; the T/C (dose: 8.0 mg/kg/injection, schedule: Q01DX009 (ip), vehicle: other) is 117 % of control; the T/C (dose: 12.0 mg/kg/injection, schedule: Q01DX009 (ip), vehicle: other) is 114 % of control; the T/C (dose: 18.0 mg/kg/injection, schedule: Q01DX009 (ip), vehicle: other) was 112 % of control; the T/C (dose: 25.0 mg/kg/injection, schedule: Q01DX009 (ip), vehicle: other) is 99 % of control.

`O=c1c2[nH]c3ccccc3sc=2c(=O)n1-c1cccc(C(F)(F)F)c1`: the T/C is 104 % of control (dose: 50.0 mg/kg/injection, schedule: Q01DX005 (ip), vehicle: saline with Tween-80); 100 % of control (dose: 100.0 mg/kg/injection, schedule: Q01DX005 (ip), vehicle: saline with Tween-80); 101 % of control (dose: 200.0 mg/kg/injection, schedule: Q01DX005 (ip), vehicle: saline with Tween-80).

On to `Cc1ccc(S(=O)(=O)N/N=C/C(Br)=C(/Br)C(=O)O)cc1`, for which the T/C by setting is: (dose: 25.0 mg/kg/injection, schedule: Q01DX009 (ip), vehicle: distilled water + Tween-80) 154 % of control and 171 % of control; (dose: 50.0 mg/kg/injection, schedule: Q01DX009 (ip), vehicle: distilled water + Tween-80) 157 % of control and 166 % of control.

On to `CC(=O)Nc1ccc(-c2cn3ccccc3n2)cc1`, for which the T/C under setting [2] is 100 % of control; the T/C under setting [3] was 92 % of control; the T/C (dose: 200.0 mg/kg/injection, schedule: Q01DX009 (ip), vehicle: saline with Tween-80) was 106 % of control.

Consider `NNC(=O)CC(N)=O`, for which the T/C runs as follows: (dose: 12.5 mg/kg/injection, schedule: Q04DX003 (ip), vehicle: saline) 95 % of control; (dose: 25.0 mg/kg/injection, schedule: Q04DX003 (ip), vehicle: saline) 95 % of control; (dose: 50.0 mg/kg/injection, schedule: Q04DX003 (ip), vehicle: saline) 96 % of control; (dose: 200.0 mg/kg/injection, schedule: Q04DX003 (ip), vehicle: saline) 104 % of control; (dose: 400.0 mg/kg/injection, schedule: Q04DX003 (ip), vehicle: saline) 100 % of control.

Take `Cc1ccc(-n2c(O)c(N=Nc3ccccc3Cl)c(=O)n(-c3ccc(Br)cc3)c2=S)cc1`: the T/C is 98 % of control (dose: 100.0 mg/kg/injection, schedule: Q01DX001 (ip), vehicle: saline with Tween-80); 101 % of control (dose: 200.0 mg/kg/injection, schedule: Q01DX001 (ip), vehicle: saline with Tween-80); 96 % of control (dose: 400.0 mg/kg/injection, schedule: Q01DX001 (ip), vehicle: saline with Tween-80).

`CO[C@@]12[C@@H]3N[C@@H]3CN1C1=C(C(=O)C(N3CCCC3)=C(C)C1=O)[C@@H]2COC(N)=O`: the T/C by setting is: (dose: 0.78 mg/kg/injection, schedule: Q01DX005 (ip), vehicle: saline with Tween-80) 193 % of control; (dose: 3.75 mg/kg/injection, schedule: Q01DX005 (ip), vehicle: saline with Tween-80) 186 % of control; (dose: 10.4 mg/kg/injection, schedule: Q01DX005 (ip), vehicle: saline with Tween-80) 214 % of control; (dose: 17.4 mg/kg/injection, schedule: Q01DX005 (ip), vehicle: saline with Tween-80) 214 % of control; (dose: 25.0 mg/kg/injection, schedule: Q01DX005 (ip), vehicle: saline with Tween-80) 87 % of control.

In the case of `CCOC(=O)/C(=C/Nc1ccc(O)cc1)NC(=O)c1ccccc1`, the T/C reads like this: under setting [4], 103 % of control and 104 % of control; under setting [5], 94 % of control and 97 % of control; under setting [6], 118 % of control and 87 % of control; (dose: 400.0 mg/kg/injection, schedule: Q01DX009 (ip), vehicle: Klucel (hydroxypropylcellulose) (HPC)) 89 % of control.

As for `O=CNC(Cc1ccccc1N(CCCl)CCCl)C(=O)O` (configuration not stated), the T/C was 198 % of control (dose: 5.0 mg/kg/injection, schedule: Q04DX003 (ip), vehicle: other); 154 % of control (dose: 5.0 mg/kg/injection, schedule: Q04DX003 (ip), vehicle: water); 261 % of control (dose: 10.0 mg/kg/injection, schedule: Q04DX003 (ip), vehicle: other); 187 % of control (dose: 10.0 mg/kg/injection, schedule: Q04DX003 (ip), vehicle: water); 293 % of control (dose: 20.0 mg/kg/injection, schedule: Q04DX003 (ip), vehicle: other); 309 % of control (dose: 20.0 mg/kg/injection, schedule: Q04DX003 (ip), vehicle: water). Also, the T/C (dose: 40.0 mg/kg/injection, schedule: Q04DX003 (ip), vehicle: water) was 113 % of control.

On to `Cn1c(N)c(C(=O)c2cccs2)c(=O)n(C)c1=O`, for which the T/C under setting [4] was 96 % of control, the T/C under setting [5] was 88 % of control and the T/C under setting [6] was 96 % of control.

In the case of `CN=Cc1ccc(OC)cc1`, the T/C runs as follows: under setting [1], 95 % of control; under setting [2], 95 % of control; under setting [3], 95 % of control.

With `COc1ccc2c(n1)c(=NCCCCCCN=c1c3ccc(Cl)cc3n(O)c3ccc(OC)nc13)c1ccc(Cl)cc1n2O`, the T/C (dose: 100.0 mg/kg/injection, schedule: Q04DX003 (ip), vehicle: Klucel (hydroxypropylcellulose) (HPC)) is 116 % of control and the T/C (dose: 200.0 mg/kg/injection, schedule: Q04DX003 (ip), vehicle: Klucel (hydroxypropylcellulose) (HPC)) was 100 % of control.

On to `C=C(C)C#CC1(O)C=C(OC)C(OC)=CC1=O` (configuration not stated), for which the T/C (dose: 60.0 mg/kg/injection, schedule: Q01DX005 (ip), vehicle: saline with Tween-80) was 105 % of control; the T/C (dose: 120.0 mg/kg/injection, schedule: Q01DX005 (ip), vehicle: saline with Tween-80) is 107 % of control; the T/C (dose: 240.0 mg/kg/injection, schedule: Q01DX005 (ip), vehicle: saline with Tween-80) is 88 % of control.

With `CN(C)c1ccc(C=C2C(=O)CC(C)(C)CC2=O)cc1`, the T/C is, setting by setting: (dose: 25.0 mg/kg/injection, schedule: Q01DX009 (ip), vehicle: Klucel (hydroxypropylcellulose) (HPC)) 106 % of control; under setting [4], 97 % of control; under setting [5], 92 % of control; under setting [6], 93 % of control.

`CCC(C)=C(C#N)NC(C)(C)C` (mixture of isomers): the T/C under setting [7] is 106 % of control, the T/C under setting [8] was 100 % of control and the T/C under setting [9] is 110 % of control.

For `CCCCCCCCCCCCCCCCCCOCC(O)CO` (configuration not stated), the T/C runs as follows: (dose: 25.0 mg/kg/injection, schedule: Q01DX009 (ip), vehicle: saline + alcohol) 91 % of control; (dose: 50.0 mg/kg/injection, schedule: Q01DX009 (ip), vehicle: saline + alcohol) 92 % of control; (dose: 100.0 mg/kg/injection, schedule: Q01DX009 (ip), vehicle: saline + alcohol) 94 % of control; (dose: 200.0 mg/kg/injection, schedule: Q01DX009 (ip), vehicle: saline + alcohol) 100 % of control; (dose: 400.0 mg/kg/injection, schedule: Q01DX009 (ip), vehicle: saline + alcohol) 100 % of control.

For the compound `O=c1[nH]c(=S)cnn1C1OC(CO)C(O)C1O` (configuration not stated), the T/C was 106 % of control under setting [7], 94 % of control under setting [8] and 101 % of control under setting [9].
